≈ marks a conversion by molar mass, not a printed value. Calls of active or inactive are those of the source. No cut-off for these calls is given here. Where a SMILES comes first, the peptide text is derived from it. Bridges are numbered along the chain shown (N, C = ends). Roman numbers before positions name the chains, in order. Side-chain parts run from the residue outwards. [ ]: non-standard residue; d: D form. The star is where a group is joined. X1 = CC(C)C[C@H](N)C(=O)NC[C@H](NC(=O)[C@@H](N)CC(C)C)C(=O)*; Dap = NC[C@H](N)C(=O)O
Columns and labels:
Pseudomonas aeruginosa [1] = assay: Antibacterial activity against Pseudomonas aeruginosa ATCC 27853 by broth microdilution assay; assay type: functional
[2] = tested on: Staphylococcus epidermidis; assay: Antibacterial activity against Staphylococcus epidermidis J147 by broth microdilution assay; assay type: functional
[3] = tested on: Staphylococcus epidermidis; assay: Antibacterial activity against Staphylococcus epidermidis ATCC 14990 by broth microdilution assay; assay type: functional
Pseudomonas aeruginosa [4] = assay: Antibacterial activity against Pseudomonas aeruginosa K799/61 by broth microdilution assay; assay type: functional
Pseudomonas aeruginosa [5] = assay: Antibacterial activity against Pseudomonas aeruginosa PAO1 after 18 to 24 hrs by broth microdilution assay; assay type: functional
Pseudomonas aeruginosa [6] = assay: Antibacterial activity against Pseudomonas aeruginosa 8S/H by broth microdilution assay; assay type: functional
[7] = Hemolytic activity in human RBC after 4 hrs; assay type: ADME, cell-based; details: erythrocyte
Enterococcus faecalis [8] = assay: Antibacterial activity against Enterococcus faecalis Van BE80-8 by broth microdilution assay; assay type: functional
Escherichia coli [9] = assay: Antibacterial activity against Escherichia coli DH5[alpha] after 18 to 24 hrs by broth microdilution assay; assay type: functional
Pseudomonas aeruginosa [10] = assay: Antibacterial activity against Pseudomonas aeruginosa K799/WT by broth microdilution assay; assay type: functional
Escherichia coli [11] = assay: Antibacterial activity against Escherichia coli DC2 by broth microdilution assay; assay type: functional
Staphylococcus aureus [12] = assay: Antibacterial activity against Staphylococcus aureus ATCC 29213 by broth microdilution assay; assay type: functional
Lipid bilayer = assay: Induction of membrane disruption in synthetic unilamellar vesicles assembled from Escherichia coli lipids at 25 ug/ml after 16 hrs by negative-stain transmission electron microscopic analysis; assay type: functional
Staphylococcus aureus [13] = assay: Antibacterial activity against Staphylococcus aureus 887 by broth microdilution assay; assay type: functional
Escherichia coli [14] = assay: Antibacterial activity against Escherichia coli HB101 (PAT 266) by broth microdilution assay; assay type: functional
Enterococcus faecium [15] = assay: Antibacterial activity against Enterococcus faecium ATCC 19434 by broth microdilution assay; assay type: functional
Staphylococcus aureus [16] = assay: Antibacterial activity against methicillin-resistant Staphylococcus aureus 42080 by broth microdilution assay; assay type: functional
Escherichia coli [17] = assay: Antibacterial activity against Escherichia coli ATCC 25922 by broth microdilution assay; assay type: functional
Staphylococcus aureus [18] = assay: Antibacterial activity against Staphylococcus aureus ATCC 25923 by broth microdilution assay; assay type: functional
Enterococcus faecalis [19] = assay: Antibacterial activity against Enterococcus faecalis ATCC 29212 by broth microdilution assay; assay type: functional
Enterococcus faecium [20] = assay: Antibacterial activity against Enterococcus faecium Van BE38-10 by broth microdilution assay; assay type: functional
Pseudomonas aeruginosa [21] = assay: Antibacterial activity against Pseudomonas aeruginosa PAO1 HS by broth microdilution assay; assay type: functional
Bacillus subtilis = assay: Antibacterial activity against Bacillus subtilis BR151 after 18 to 24 hrs by broth microdilution assay; assay type: functional

## CC(C)C[C@H](NC(=O)[C@H](CCCCNC(=O)[C@@H](N)CC(C)C)NC(=O)[C@@H](N)CC(C)C)C(=O)NCCCC[C@H](NC(=O)[C@H](CC(C)C)NC(=O)[C@H](CCCCNC(=O)[C@@H](N)CC(C)C)NC(=O)[C@@H](N)CC(C)C)C(=O)N[C@@H](Cc1ccccc1)C(=O)NCCCC[C@H](NC(=O)[C@H](Cc1ccccc1)NC(=O)[C@H](CCCCNC(=O)[C@H](CC(C)C)NC(=O)[C@H](CCCCNC(=O)[C@@H](N)CC(C)C)NC(=O)[C@@H](N)CC(C)C)NC(=O)[C@H](CC(C)C)NC(=O)[C@H](CCCCNC(=O)[C@@H](N)CC(C)C)NC(=O)[C@@H](N)CC(C)C)C(=O)N[C@@H](CCCCN)C(N)=O
Pseudomonas aeruginosa [1]
  MIC: > 32 µg/mL
[2]
  MIC: 24 µg/mL (≈ 8.91 µM)
[3]
  MIC: 32 µg/mL (≈ 11.9 µM)
Pseudomonas aeruginosa [4]
  MIC: > 32 µg/mL
Pseudomonas aeruginosa [5]
  MIC: > 72 µg/mL
Pseudomonas aeruginosa [6]
  MIC: > 32 µg/mL
[7]
  MHC: 310 µg/mL
Enterococcus faecalis [8]
  MIC: > 32 µg/mL
Escherichia coli [9]
  MIC: 21 µg/mL (≈ 7.79 µM)
Pseudomonas aeruginosa [10]
  MIC: > 32 µg/mL
Escherichia coli [11]
  MIC: > 32 µg/mL
Staphylococcus aureus [12]
  MIC: > 32 µg/mL
Lipid bilayer
  Activity: Active
Staphylococcus aureus [13]
  MIC: 12 µg/mL (≈ 4.45 µM)
Escherichia coli [14]
  MIC: 32 µg/mL (≈ 11.9 µM)
Enterococcus faecium [15]
  MIC: ≥ 32 µg/mL
Staphylococcus aureus [16]
  MIC: > 32 µg/mL
Escherichia coli [17]
  MIC: > 32 µg/mL
Staphylococcus aureus [18]
  MIC: 24 µg/mL (≈ 8.91 µM)
Enterococcus faecalis [19]
  MIC: > 32 µg/mL
Enterococcus faecium [20]
  MIC: 32 µg/mL (≈ 11.9 µM)
Pseudomonas aeruginosa [21]
  MIC: > 32 µg/mL
Bacillus subtilis
  MIC: 2 µg/mL (≈ 0.742 µM)

## CC(C)C[C@H](NC(=O)[C@H](CNC(=O)[C@@H](N)CC(C)C)NC(=O)[C@@H](N)CC(C)C)C(=O)NC[C@H](NC(=O)[C@H](CC(C)C)NC(=O)[C@H](CNC(=O)[C@@H](N)CC(C)C)NC(=O)[C@@H](N)CC(C)C)C(=O)N[C@@H](Cc1ccccc1)C(=O)NC[C@H](NC(=O)[C@H](Cc1ccccc1)NC(=O)[C@H](CNC(=O)[C@H](CC(C)C)NC(=O)[C@H](CNC(=O)[C@@H](N)CC(C)C)NC(=O)[C@@H](N)CC(C)C)NC(=O)[C@H](CC(C)C)NC(=O)[C@H](CNC(=O)[C@@H](N)CC(C)C)NC(=O)[C@@H](N)CC(C)C)C(=O)N[C@@H](CCCCN)C(N)=O (I: H-L[Dap](Leu)L[Dap]([Leu-X1])F[Dap]K-NH2 / II: H-L[Dap](Leu)L[Dap]([Leu-X1])F; amide I:6-II:C)
Pseudomonas aeruginosa [1]
  MIC: > 32 µg/mL
[2]
  MIC: 24 µg/mL (≈ 10 µM)
[3]
  MIC: 24 µg/mL (≈ 10 µM)
Pseudomonas aeruginosa [4]
  MIC: > 32 µg/mL
Pseudomonas aeruginosa [5]
  MIC: 18 µg/mL (≈ 7.5 µM)
Pseudomonas aeruginosa [6]
  MIC: > 32 µg/mL
[7]
  MHC: > 2000 µg/mL
Enterococcus faecalis [8]
  MIC: > 32 µg/mL
Escherichia coli [9]
  MIC: 3.9 µg/mL (≈ 1.62 µM)
Pseudomonas aeruginosa [10]
  MIC: > 32 µg/mL
Escherichia coli [11]
  MIC: 32 µg/mL (≈ 13.3 µM)
Staphylococcus aureus [12]
  MIC: > 32 µg/mL
Staphylococcus aureus [13]
  MIC: 32 µg/mL (≈ 13.3 µM)
Escherichia coli [14]
  MIC: 32 µg/mL (≈ 13.3 µM)
Enterococcus faecium [15]
  MIC: > 32 µg/mL
Staphylococcus aureus [16]
  MIC: > 32 µg/mL
Escherichia coli [17]
  MIC: > 32 µg/mL
Staphylococcus aureus [18]
  MIC: ≥ 32 µg/mL
Enterococcus faecalis [19]
  MIC: > 32 µg/mL
Enterococcus faecium [20]
  MIC: > 32 µg/mL
Pseudomonas aeruginosa [21]
  MIC: > 32 µg/mL
Bacillus subtilis
  MIC: 2.9 µg/mL (≈ 1.21 µM)

— ChEMBL document CHEMBL3217499, “Membrane disrupting antimicrobial peptide dendrimers with multiple amino termini” (Medchemcomm, 2012)
